Test results published in patent US9877681B2, ““Micro-patch” for assessment of the local microvasculature and microcirculatory vasoreactivity” (priority 2007, dated 2018).
Entries after “also recorded” stand apart in the source; their conditions may differ. Where two headings read alike, the source gives them in different places.

Assays:
[1] = test system: local microvasculature (forehead); assay: Study B: acetylcholine and nitroglycerin micro-patches, laser Doppler flowmetry of forehead perfusion in healthy volunteers; format: in vivo, human; details: for increase in laser Doppler flowmetry readings, mean (95% CI): 10 healthy volunteers, forehead, plateau vs baseline; for time to marked rise in laser Doppler flowmetry voltage (flux) after drug application: each healthy volunteer; for blood flow at the micro-patch site, representative tracings: one healthy subject, FIG. 19
Text: (§1) Mixing was accomplished to achieve a final product that was smooth and free of abrasive particles. Based on trial and error testing, it was elected to pursue testing with acetylcholine chloride powder dissolved in water for placement on an adherent surface (e.g., clear tape). […] This dose is proportional to doses of MIOCHOL-E,™ (that is, a clinically available acetylcholine preparation that is used to produce papillary constriction (miosis) during cataract surgery) that had been tested in preliminary trials. However, the agent used for micro-patches can be superconcentrated compared to the solution used for intraocular injection—made possible because of the small delivery area.
The dry side of the acetylcholine “micro-patch” was adhered to the end of a laser Doppler flowmetry probe (a PF 5010 with Probe Model 407, Perimed, Sweden in accordance with a preferred embodiment) (see FIGS. 1 and 2). A sham drug micro-patch was made in the same way with 0.02-mL of HPLC-grade water instead of acetylcholine solution. Before micro-patch application, a DOUBLE-STICK DISC™ (3M Health Care, Neuss, Germany) (that is, the double-sided adhesive ring 6 discussed above) with an overall diameter of 38.1-mm and a central hole (or opening) diameter of 8.7-mm is placed at the site to be tested. The double-sided adhesive ring 6 serves as an adherent base onto which a monitor such as a laser Doppler flowmetry probe 1 is placed as well as to define the area (59.4-mm^2) for drug application. In addition to providing for targeted adherence, when placed between the micro-patch 2 and the study surface (as shown in FIG. 1) this further limits the area of drug delivery by providing a barrier to drug delivery from the outer regions of the micro-patch 2. As detailed below, this delivered as much as 10% of that used to constrict the pupil during cataract surgery Dose-response curve can be assessed with serial dilutions. […] Laser Doppler flowmetry is an exemplary form of potential monitoring (used in each of the Table 2 studies).
The creation of a nitroglycerin micro-patch so as to enable concurrent monitoring of an endothelium-dependent transdermal preparation (acetylcholine, described above) and an endothelium-independent vasodilator (nitroglycerin) is simpler than the creation of the acetylcholine micro-patch. […] The present invention provides not only for the application of the disclosed method for monitoring the local circulation but the tailoring of the micro-patch to ensure effective delivery throughout the monitoring site while avoiding delivery of excess drug that might predispose to remote and/or systemic effects. For a single laser Doppler flowmetry probe, the nitroglycerin micro-patch may be obtained by using a standard hole-punch to cut a 6-mm diameter (28.3-mm^2 area) section of a full size 0.6 mg/hr MINITRAN™ nitroglycerin patch (3M, Minnesota). Alternatively, for applications where one wishes to move the laser Doppler flowmetry probe so as to encompass a larger area (as with the inventive assembly in FIG. 16), a small rectangle may be appropriate. Such patches are designed for homogeneous delivery of drug at a rate of 0.03-mg/hour per 100-mm^2 area of patch, such that the section used in the inventive micro-patch delivered at a rate of approximately 0.008-mg/hr. Although not currently available, lesser or higher concentrations of nitroglycerin may be used for micro-patches, pending dose response studies to confirm local efficacy and lack of systemic effects. The nitroglycerin micro-patch then is placed onto a double-sided adhesive ring for adherence to a monitoring probe (see FIGS. 1 and 2) or it may be placed on the tissue under an elevated support assembly 131 or scanner (described below).
Methods: For each session, subjects lay on a bed in a semi-recumbent position in a temperature-controlled room (24+1° C.). A three-lead electrocardiogram and a noninvasive brachial artery blood pressure cuff were applied. […]

[2] = test system: local microvasculature (forehead); assay: Study B: acetylcholine and nitroglycerin micro-patches, laser Doppler flowmetry of forehead perfusion in patients with diabetes; format: in vivo, human; details: 10 diabetic patients with retinopathy
Experimental: Methods: For each session, subjects lay on a bed in a semi-recumbent position in a temperature-controlled room (24+1° C.). A three-lead electrocardiogram and a noninvasive brachial artery blood pressure cuff were applied. The three laser Doppler flowmetry probes with customized acetylcholine, nitroglycerin, and placebo micro-patches (as described above) attached were adhered onto the three double-stick discs on the forehead so as to enable undisturbed monitoring and drug delivery. Laser Doppler flowmetry monitoring was performed continuously at each site until a vasodilatory plateau was maintained for ≧3 minutes or for a maximum of 20 minutes. Data were collected at a rate of 1000 Hz using Chart for Windows (ADlnstruments, Colorado Springs, Colo.).
The local microvascular effects of transdermal acetylcholine and nitroglycerin were first tested in 10 healthy volunteers (7 males, 3 females; mean age 36.1, range 19 to 56 years) without vascular disease or diabetes. […]
An investigator blinded to the status of the subject and to the nature of the study site assessed the laser Doppler tracing at each study site. […] The effects of the single dose of acetylcholine was compared to the single dose of nitroglycerin in the healthy volunteers, with the differences analyzed using Wilcoxon Signed Rank Test (WSRT). […]

[3] = test system: local microvasculature (forehead); assay: Laser Doppler scanner imaging of micro-patch sites on the forehead; format: in vivo, human; details: several minutes after application, FIGS. 22-24
Text: Another alternative is provided by the laser Doppler scanning imager. […] [Wardell K, Braverman I M, Silverman D G, Nilsson G E: Spatial heterogeneity in normal skin perfusion recorded with laser Doppler imaging and flowmetry. Microvascular Research 48(1):26-38, 1994 July]. […] This is accomplished by rapidly scanning an area by a shifting light that is sequentially directed to successive study sites by a mirror. […] This is because the laser Doppler scanner typically monitors a given site for fractions of a second. […] Compromises include rapidly scanning all sites at repeat intervals for a long enough period to overcome the effects of pulsations and oscillations. However, a relatively long interval is required to ensure this. Thus, the laser Doppler scanner mitigates spatial variability at the expense of temporal variability (e.g., beat-to-pulsations with each heart beat as well as oscillations in activity as a component of autonomic regulation of blood vessels).

forehead blood flow = assay: Non-iontophoretic transdermal acetylcholine at the forehead, laser Doppler flowmetry (Table 2); format: in vivo, human; details: Silverman, <0.25 ml of 1%, inc
Text: as §1
The dry side of the acetylcholine “micro-patch” was adhered to the end of a laser Doppler flowmetry probe (a PF 5010 with Probe Model 407, Perimed, Sweden in accordance with a preferred embodiment) (see FIGS. 1 and 2). A sham drug micro-patch was made in the same way with 0.02-mL of HPLC-grade water instead of acetylcholine solution. […] As detailed below, this delivered as much as 10% of that used to constrict the pupil during cataract surgery Dose-response curve can be assessed with serial dilutions. […]

forearm blood flow = details: Iontophoresis, inc, cited from earlier work
[4] = test system: local microvasculature (forehead)
Experimental: Prior to the customization of nitroglycerin according to the present invention, nicotine was customized in accordance with the purposes of present invention. This entailed customization of a commercially available clear NICODERM patch, nicotine delivery patch, (with 0.83 mg of nicotine/cm^2). Again, lesser or higher concentrations may be used for a micro-patch; these are not currently available, since currently available nicotine patches delivery a fixed dose/cm^2 patch such that a higher systemic dose is obtained by using a larger patch.
The preliminary investigations with nicotine micro-patches (0.83 mg/cm^2) entailed customizing a section of the micro-patch so that it adhered to an area of skin that was sufficient to deliver drug to the area under a laser Doppler flowmetry probe and that enabled attachment of the laser Doppler flowmetry probe to an upper surface of the micro-patch.

[5] = test system: local microvasculature (finger); assay: Micro-patch applied to the finger, laser Doppler flowmetry; format: in vivo, human
Text: The difference likewise is seen in results generated by a laser Doppler scanner (discussed below).

[6] = test system: local microvasculature (finger); assay: Laser Doppler scanner imaging of micro-patch sites on the fingers; format: in vivo, human; details: FIG. 25
Text: Nitroglycerin induces vasodilation independent of the parasympathetic pathways. […] Anesthesiology 2004;101:A246] and phenylephrine [Silverman D G, Stout R G: Distinction between atropine-sensitive control of microvascular and cardiac oscillatory activity. Microvasc Res 63:196-208, 2002].

local microvasculature = assay: Fast Fourier transformation (FFT) of signals at micro-patch sites; format: in vivo, human
Text: This leads to present disclosure of a means to overcome the potential confusion: I herein introduce the application of spectral domain analysis [fast Fourier transformation (FFT), alluded to above, and variations thereof such as joint time frequency)] to characterize PTT values. This enables comparative assessment of: FFT of PTTPPG (primarily influenced by arrival of the stroke volume at underlying artery), FFT of PTTlaserDoppler (arrival of stroke volume at microvasculature), and FFT of PTTPPG-LaserDoppler.
Once combined monitoring becomes available at a given site, and then concurrent FFT analysis of PTT of artery, acv and vein will enable one to delineate the sites of microvascular and neuro-microvascular activity. In addition to micro-patch induced changes in readings between sites of measurement (e.g. PTT), we can also measure changes at sites of measurement (e.g., mean, heights). Again, confounders such as different units and differing criteria for onset may be avoided with FFT.

[7] = test system: local microvasculature (forehead); assay: Study D: impact of fatty meal on responses to nitroglycerin and acetylcholine micro-patches; format: in vivo, human; details: 10 minutes after patch application
Experimental: Two hours later, subjects underwent application of acetylcholine and nitroglycerin micro-patches. As described above, the former was prepared by mixing 100 mg of solid acetylcholine with […] of sterile water. From this solution (concentration of 14.3 mg/ml) we used an aliquot of just under 0.14 ml (less than 10% of the standard 20 mg dose injected into the eye during cataract surgery). The latter consisted of a 1.4 cm×1.4 cm translucent square (cut from a full-sized nitroglycerin patch) to delivery 0.008 mg/hr of nitroglycerin to the study site. Before each patch application, seven sites of the forehead were monitored with a commercially available integrating laser Doppler flowmetry probe that averages the output from several closely packed light-transmitting channels (to partially overcome spatial heterogeneity). At 10 minutes after patch application, readings were repeated. Changes were analyzed using paired t-test.

[8] = test system: local microvasculature (forehead); details: scopolamine applied with/before nicotine, FIG. 18

For `CC(=O)OCC[N+](C)(C)C.[Cl-]` [acetylcholine, acetylcholine chloride], the “increase in laser Doppler flowmetry readings, mean (95% CI)” value [1] was 406% (245%-566%), the “time to marked rise in laser Doppler flowmetry voltage (flux) after drug application” value [1] was “two” and the “change in systemic blood pressure and heart rate” value ([1]; human, in vivo) was “lack of significant change”. For the same compound, the “blood flow at the micro-patch site, representative tracings” value [1] was “Prompt increases in blood flow”, the “mean percent increase in blood flow (95% CI)” value [2] was 156% (91%-221%) and the “relative blood flow at the micro-patch site (laser Doppler scanner)” value (from here on “relative blood flow”) [3] was “increase in relative blood flow; also recorded: increased blood flow”. The “Change in Blood Flow” value (forehead blood flow) was 50-250%, the “Change in Blood Flow” value (forearm blood flow; Morris, approx 0.25 ml of 1%) was 50-100% and the “Change in Blood Flow” value (forearm blood flow; Noon, approx 0.25 ml of 2%) was 1000%.
For `CN1CCCC1c1cccnc1` (stereo not drawn) [nicotine], the “increase in flow at the active site” value ([4]; button-sized translucent micro-patch, forehead of seven healthy subjects) was 388.4%, the “response at a remote site or in systemic indices (heart rate, blood pressure, flow at other sites)” value ([4]; drug delivery limited to the micro-patch) was “no response” and the “flow at the nicotine site relative to baseline (laser Doppler flowmetry)” value ([4]; forehead, between 5 and 15 minutes after application, FIG. 17) was “approximately 300 % of baseline”. For the same compound, the “increase in local blood flow” value ([4]; transdermal application at the forehead, within 30 min) was 2-5 fold, the “local microvasculature's response to the micro-patch” value ([4]; transdermal micro-patch) was “vasodilation” and the “change in flow when applied to the finger” value [5] was “no significant change”. The “relative blood flow” value [3] was “increase in relative blood flow; also recorded: caused vasodilation; also recorded: greatest flow”, the “flow at the micro-patch site (laser Doppler scanner)” value [6] was “lack of increased flow” and the “change in the 0.03-0.12 Hz frequency range by FFT” value (local microvasculature; 0.03-0.12 Hz) was “marked increase”. The “oscillatory activity at micro-patch site by FFT” value (local microvasculature; in vivo) was “marked oscillatory activity”.
In the case of `O=[N+]([O-])OCC(CO[N+](=O)[O-])O[N+](=O)[O-]` [nitroglycerin], the “change in flow when applied to the finger” value [5] is reported as “significant change”, the “increase in laser Doppler flowmetry readings, mean (95% CI)” value [1] is reported as 365% (179%-550%) and the “time to marked rise in laser Doppler flowmetry voltage (flux) after drug application” value [1] is reported as “two”. For the same compound, the “change in systemic blood pressure and heart rate” value ([1]; healthy volunteers) was “lack of significant change”, the “blood flow at the micro-patch site, representative tracings” value [1] was “Prompt increases in blood flow” and the “mean percent increase in blood flow (95% CI)” value [2] was 116% (79%-153%). The “nitroglycerin/acetylcholine ratio of induced increase” value ([7]; two hours after fat-laden meal) was 1.31, the “nitroglycerin/acetylcholine ratio of induced increase” value ([7]; two hours after nonfat meal) was 0.94 and the “relative blood flow” value [3] was “increase in relative blood flow; also recorded: caused vasodilation; also recorded: Increased flow”. The “flow at the micro-patch site (laser Doppler scanner)” value [6] was “induced vasodilation; also recorded: flow increased”.
With `CN1[C@@H]2C[C@@H](OC(=O)[C@H](CO)c3ccccc3)C[C@H]1[C@@H]1O[C@@H]12` [scopolamine] the “effect of scopolamine on the nicotine-induced increase in perfusion” value [8] was “blunted; also recorded: inhibition”.
